Assay results as given in patent US20100113332A1, “METHOD OF TREATING AN INFLAMMATORY DISEASE BY DOUBLE STRANDED RIBONUCLEIC ACID” (NASTECH PHARMACEUTICAL COMPANY INC., priority 2004, published 2010).

How the values were obtained:
TNF-α mRNA = assay: TNF-α knockdown in human monocytes (branch DNA);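 also: LPS-activated human CD14+ monocytes, TNF-α mRNA read by branched DNA assay and normalized to cypB mRNA, knockdown compared with random-sequence Qneg siRNA as negative control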
From the text: For mRNA measurement, branch DNA technology from Genospectra (CA) was used according to manufacturer's specification. Human monocytes (CD14+) treated with LPS induce TNF-α-specific mRNA within approximately 2 hrs, followed by peak levels of TNF-α protein 2 hrs later. siRNAs were screened for knockdown activity by transfecting monocytes with siRNA candidate sequences using Lipofectamine 2000, treating infected cells with LPS, and measuring TNF-α mRNA levels approximately 16 hrs later.
To quantitate mRNA level in the cells, both house keeping gene (cypB) and target gene (TNF-α) mRNA were measured, and the reading for TNF-α was normalized with cypB to obtain relative luminescence unit.
Qneg represents a random siRNA sequence and functions as the negative control in these experiments.

TNF-α = assay: mouse LPS response, TNF-α in blood; format: in vivo; settings: 2 mg/kg siRNA, with or without PN73; vs negative controls
Experimental: Normal [mouse type] mice were treated with various concentrations of LPS by intraperitoneal or intravenous injections. LPS responsiveness was determined by measuring levels of TNF-α in blood that was sampled various times following the LPS injection. A linear range of TNF-α induction was found between 10 ng and 100 ng for LPS injection by IP administration and up to 25 ng by IV injection. The average time for maximal TNF-α induction is 70 minutes following LPS injection.
The LPS induction was performed 24 hr following the last siRNA injection, 0.2 ug LPS and blood was collected at 90 minutes following LPS injection.
Three studies of 30 animals each dosing by the following schedules: 4 consecutive days; 8 consecutive days; and 11 consecutive days. LPS induction was performed at 24 hr post siRNA injection, 25 ng LPS (IP). Blood was drawn 70 minutes following LPS injection. […] Results from measurements and 8 and 11 days gave variable results owing to technical problems partly arising from repeated tail injections.

[1] = system: human TNF-α transgenic mice; assay: RA paw score in human TNF-α transgenic mice
Experimental: For human TNF-α animal disease models, two transgenic models were used. The tg197 mice were acquired from Pasteur Hellenic Institute (Athens, Greece), and the B6.SJL-Tg(TNF) N21 mice were purchased from Taconic, Inc. (Germantown, N.Y.). The genotypes of both human TNF-α transgenic mouse models were performed by suppliers. […] All treatments were by tail vein injection twice a week. […] A similar dose regimen was used for B6.SJL-Tg(TNF) N21 mice. Clinical scores were based on a previously described scoring system (2, 3) as follows: 0 (normal), 1 (edema or distortion of paw or ankle joints), 2 (distortion of paw and ankle joints), or 3 (ankylosis of wrist or ankle joints). The sum of all four paws was scored twice a week with a maximum score of 12 per mouse.
For Hellenic transgenic mice, RA scores were determined (blinded to treatment) using the following criteria: 0, normal; 1, edema or distortion of paw or ankle joints; 2 distortion of paw and ankle joints; 3, ankylosis of wrist or ankle joints.
Human NF-α expressing mice were purchase from the Hellenic Pasture Institute, Greece) at 5 weeks old. […] During the injection periods, plasma samples were collected for ELISA testing (R&D Systems, Cat#SSTA00C), and paw scores were taken twice a week as an accepted index of RA disease progression and therapeutic efficacy (Table 19).
Due to the difference in the starting point (some animals present with scores at earlier points), the scores have been adjusted to 0 for all animals in the experiments. Each paw is given a score between 0 and 3, with the highest score of 12, according to the following scoring index. • 0: Normal • 1: edema or distortion of paw or ankle joints • 2: distortion of paw and ankle joints • 3: ankylosis of wrist or ankle joints.

[2] = system: interferon response markers (IL-1β, INF-α, IL-6, IL-8, IL-12, MIP-1α, IFN-γ, TNF-α); assay: interferon responsiveness, marker protein ELISA; format: cell-based
Experimental: (§1) Interferon responsiveness was assayed by ELISA (protein) and bDNA (mRNA levels).

IL-1β mRNA = assay: interferon responsiveness, IL-1β mRNA (bDNA); format: cell-based; settings: siRNA complexed with lipofectamine; 100 nM or 200 nM for TNF-α9
Experimental: as §1

For “AAUCCUCAGCCUCUUCUCCUU (siRNA; chemistry not fully specified) [LC13]”, the “TNF-α knockdown activity (FIG. 6-C)” value (TNF-α mRNA; absence of PN73, 0-2.5 nM) was “little knockdown activity”, the “KD (%) TNF-α” value (TNF-α mRNA; siRNA 4 nM complexed with 1.6 uM PN73) was 48.29% and the “KD (%) TNF-α” value (TNF-α mRNA; siRNA 4 nM complexed with 1.6 uM PN509) was 25.04%. The “KD (%) TNF-α” value (TNF-α mRNA; siRNA 20 nM complexed with 0.5 uM PN250) was 20.65%, the “KD (%) TNF-α” value (TNF-α mRNA; siRNA 20 nM complexed with 0.75 uM PN250) was 18.04% and the “KD (%) TNF-α” value (TNF-α mRNA; siRNA 20 nM complexed with 1 uM PN250) was 31.35%. For the same sequence, the “decrease in TNF-α gene expression relative to Qneg control (FIG. 6-B)” value (TNF-α mRNA; siRNA complexed with PN73 1:1, 0-2.5 nM) was ~15%, the “circulating TNF-α resulting from LPS induction” value (TNF-α) was “lowered amounts of circulating TNF-α” and the “Relative effect of siRNA, paw score” value ([1]; group TNF #4) was “Overall low paw score”.

In the case of “UAGCCCAUGUUGUAGCAAA (siRNA; delivered with peptide PN73, further chemistry not given here) [TNF-α9]”, the “Relative protein expression level of IFN-γ” value ([2]; Lipofectamine transfection) is reported as “Background”, the “Relative protein expression level of IL-12” value ([2]; Lipofectamine transfection) is reported as “Background” and the “Relative protein expression level of INF-α” value ([2]; Lipofectamine transfection) is reported as “Background”. For the same sequence, the “IL-1β, IL-6 and MIP-1α protein expression levels” value ([2]; transfection with lipofectamine) was “increase”, the “IL-1β mRNA levels” value (IL-1β mRNA) was “significant increase” and the “Relative effect of siRNA, effectiveness relative to Ramicade by week 8” value ([1]; group TNF #7) was “LC20 and TNF-α9 are more”. For the same sequence, the “RA progression by paw score at week 8 (FIG. 4)” value ([1]; siRNA delivered with PN73) was “delayed RA progression”.
